Experimental data taken from US10961309B2, “Reducing systemic regulatory T cell levels or activity for treatment of disease and injury of the CNS” (Yeda Research and Development Co. Ltd, priority 2014, dated 2021).
“Also recorded” adds a separate entry of the source.

What was measured:
Assay type in all cases: in vivo, mouse
[1] = system: hippocampal gliosis (GFAP); test: GFAP immunostaining (astrogliosis)
Description: Tissue processing and immunohistochemistry were performed on paraffin embedded sectioned mouse (6 μm thick) and human (10 μm thick) brains. For human ICAM-1 staining, primary mouse anti-ICAM (1:20 Abcam; ab2213) antibody was used. Slides were incubated for 10 min with 3% H2O2, and a secondary biotin-conjugated anti-mouse antibody was used, followed by biotin/avidin amplification with Vectastain ABC kit (Vector Laboratories). Subsequently, 3,3′-diaminobenzidine (DAB substrate) (Zytomed kit) was applied; slides were dehydrated and mounted with xylene-based mounting solution. For tissue stainings, mice were transcardially perfused with PBS prior to tissue excision and fixation. CP tissues were isolated under a dissecting microscope (Stemi DV4; Zeiss) from the lateral, third, and fourth ventricles of the brain. […] Microscopic analysis, was performed using a fluorescence microscope (E800; Nikon) or laser-scanning confocal microscope (Carl Zeiss, Inc.). The fluorescence microscope was equipped with a digital camera (DXM 1200F; Nikon), and with either a 20× NA 0.50 or 40× NA 0.75 objective lens (Plan Fluor; Nikon). […] For quantification of staining intensity, total cell and background staining was measured using ImageJ software (NIH), and intensity of specific staining was calculated, as previously described (Burgess et al, 2010). […]

Aβ plaques = test: Aβ plaque quantitation (immunohistochemistry)
Description: Tissue processing and immunohistochemistry were performed on paraffin embedded sectioned mouse (6 μm thick) and human (10 μm thick) brains. For human ICAM-1 staining, primary mouse anti-ICAM (1:20 Abcam; ab2213) antibody was used. Slides were incubated for 10 min with 3% H2O2, and a secondary biotin-conjugated anti-mouse antibody was used, followed by biotin/avidin amplification with Vectastain ABC kit (Vector Laboratories). Subsequently, 3,3′-diaminobenzidine (DAB substrate) (Zytomed kit) was applied; slides were dehydrated and mounted with xylene-based mounting solution. For tissue stainings, mice were transcardially perfused with PBS prior to tissue excision and fixation. CP tissues were isolated under a dissecting microscope (Stemi DV4; Zeiss) from the lateral, third, and fourth ventricles of the brain. For whole mount CP staining, tissues were fixated with 2.5% paraformaldehyde (PFA) for 1 hour at 4° C., and subsequently transferred to PBS containing 0.05% sodium azide. Prior to staining, the dissected tissues were washed with PBS and blocked (20% horse serum, 0.3% Triton X-100, and PBS) for 1 h at room temperature. Whole mount staining with primary antibodies (in PBS containing 2% horse serum and 0.3% Triton X-100), or secondary antibodies, was performed for 1 h at room temperature. Each step was followed by three washes in PBS. The tissues were applied to slides, mounted with Immu-mount (9990402, from Thermo Scientific), and sealed with cover-slips. For staining of sectioned brains, two different tissue preparation protocols (paraffin embedded or microtomed free-floating sections) were applied, as previously described (Baruch et al, 2013; Kunis et al, 2013). The following primary antibodies were used: mouse anti-Aβ (1:300, Covance, #SIG-39320); rabbit anti-GFP (1:100, MBL, #598); rat anti-CD68 (1:300, eBioscience, #14-0681); rat anti-ICAM-1 (1:200, Abcam, #AB2213); goat anti-GFP (1:100, Abcam, #ab6658); rabbit anti-IBA-1 (1:300, Wako, #019-19741); goat anti-IL-10 (1:20, R&D systems, #AF519); rat anti-Foxp3 (1:20, eBioscience, #13-5773-80); rabbit anti-CD3 (1:500, Dako, #IS503); mouse anti-ZO-1, mouse anti-E-Cahedrin, and rabbit anti-Claudin-1 (all 1:100, Invitrogen, #33-9100, #33-4000, #51-9000); rabbit anti-GFAP (1:200, Dako, #Z0334). Secondary antibodies included: Cy2/Cy3/Cy5-conjugated donkey anti-mouse/goat/rabbit/rat antibodies (1:200; all from Jackson Immunoresearch). The slides were exposed to Hoechst nuclear staining (1:4000; Invitrogen Probes) for 1 min. Two negative controls were routinely used in immunostaining procedures, staining with isotype control antibody followed by secondary antibody, or staining with secondary antibody alone. For Foxp3 intracellular staining, antigen retrieval from paraffin-embedded slides was performed using Retreivagen Kit (#550524, #550527; BD Pharmingen™). Microscopic analysis, was performed using a fluorescence microscope (E800; Nikon) or laser-scanning confocal microscope (Carl Zeiss, Inc.). The fluorescence microscope was equipped with a digital camera (DXM 1200F; Nikon), and with either a 20× NA 0.50 or 40× NA 0.75 objective lens (Plan Fluor; Nikon). The confocal microscope was equipped with LSM 510 laser scanning capacity (three lasers: Ar 488, HeNe 543, and HeNe 633). Recordings were made on postfixed tissues using acquisition software (NIS-Elements, F3 [Nikon] or LSM [Carl Zeiss, Inc.]). For quantification of staining intensity, total cell and background staining was measured using ImageJ software (NIH), and intensity of specific staining was calculated, as previously described (Burgess et al, 2010). Images were cropped, merged, and optimized using Photoshop CS6 13.0 (Adobe), and were arranged using Illustrator CS5 15.1 (Adobe).
From each brain, 6 μm coronal slices were collected, and eight sections per mouse, from four different pre-determined depths throughout the region of interest (dentate gyrus or cerebral cortex) were immunostained. […]

[2] = system: hippocampal cytokine and neurotropic factor mRNA; test: Brain parenchyma / hippocampus mRNA expression by RT-qPCR
Description: (§1) Total RNA of the hippocampal dentate gyrus (DG) was extracted with TRI Reagent (Molecular Research Center) and purified from the lysates using an RNeasy Kit (Qiagen). Total RNA of the choroid plexus was extracted using an RNA MicroPrep Kit (Zymo Research). mRNA (1 μg) was converted into cDNA using a High Capacity cDNA Reverse Transcription Kit (Applied Biosystems). The expression of specific mRNAs was assayed using fluorescence-based quantitative real-time PCR (RT-qPCR). RT-qPCR reactions were performed using Fast-SYBR PCR Master Mix (Applied Biosystems). Quantification reactions were performed in triplicate for each sample using the standard curve method. Peptidylprolyl isomerase A (ppia) was chosen as a reference (housekeeping) gene. The amplification cycles were 95° C. for 5 s, 60° C. for 20 s, and 72° C. for 15 s. At the end of the assay, a melting curve was constructed to evaluate the specificity of the reaction. For ifn-γ and ppia gene analysis, the cDNA was pre-amplified in 14 PCR cycles with non-random PCR primers, thereby increasing the sensitivity of the subsequent real-time PCR analysis, according to the manufacturer's protocol (PreAmp Master Mix Kit; Applied Biosystems). mRNA expression was determined using TaqMan RT-qPCR, according to the manufacturer's instructions (Applied Biosystems). All RT-qPCR reactions were performed and analyzed using StepOne software V2.2.2 (Applied Biosystems). The following TaqMan Assays-on-Demand™ probes were used: Mm02342430_g1 (ppia) and Mm01168134_m1 (ifn-γ).
For all other genes examined, the following primers were used: […]

[3] = system: choroid plexus leukocyte trafficking molecules (icam1, cxcl10, ccl2) and ifn-γ; test: Choroid plexus (CP) mRNA expression by RT-qPCR
Description: as §1, with “At the end of the assay, a melting curve was constructed to evaluate the specificity of the reaction.” left out, “The following TaqMan Assays-on-Demand™ probes were used: Mm02342430_g1 (ppia) and Mm01168134_m1 (ifn-γ).” left out

[4] = 3 weeks after last ATRA injection, AD-Tg mice
[5] = weekly-GA vs untreated AD-Tg mice, age 6 m

CC1=C(/C=C/C(C)=C/C=C/C(C)=C/C(=O)O)C(C)(C)CCC1 [ATRA, All-trans retinoic acid]
gliosis [1, 4]: 2-3 fold increase
cerebral Aβ plaque burden (Aβ plaques; [4]): 2-3 fold increase

Diphtheria toxin [DTx]
hippocampal gliosis (GFAP immunostaining) ([1]; AD-Tg/DTR+ mice, 3 weeks after last DTx injection): reduced astrogliosis; also recorded: reduction in hippocampal gliosis
mRNA expression levels of pro-inflammatory cytokines (il-12p40, tnf-α) ([2]; AD-Tg/DTR+ mice, brain parenchyma, 3 weeks after last DTx injection): reduced mRNA expression levels
foxp3 and il10 mRNA expression ([2]; AD-Tg/DTR+ mice, hippocampus, 3 weeks after last DTx injection): increased expression
CP mRNA expression of leukocyte trafficking molecules (icam1, cxcl10, ccl2) ([3]; AD-Tg/DTR+ vs DTx-treated AD-Tg/DTR− littermates, 1 day after last DTx injection): elevated mRNA expression

Glatiramer acetate [GA]
neuroinflammation ([2]; weekly-GA 100 μg s.c. over 4 weeks, 5XFAD AD-Tg mice, hippocampus): reduced neuroinflammation
hippocampal mRNA of anti-inflammatory cytokines IL-10 and TGF-β [2, 5]: elevation
hippocampal mRNA of neurotropic factors IGF-1 and BDNF [2, 5]: elevation
hippocampal mRNA of pro-inflammatory cytokines TNF-α, IL-1β and IL-12p40 [2, 5]: reduced expression
Aβ plaque load (Aβ plaques; daily-GA 100 μg s.c. for 1 month, 5XFAD AD-Tg mice): did not show any beneficial effect, or showed a moderate adverse effect on plaque load
Aβ plaque load (percentage of total area of hippocampal dentate gyrus) (Aβ plaques; weekly-GA, 5XFAD AD-Tg mice): robust effect; also recorded: reduction in Aβ plaque load
mean Aβ plaque numbers (Aβ plaques; weekly-GA, 5XFAD AD-Tg mice): reduction
CP epithelial expression of leukocyte trafficking molecules (icam1, cxcl10, ccl2) ([3]; weekly-GA, AD-Tg mice, end of 1st or 4th week): upregulated epithelial expression of leukocyte trafficking molecules
